Values after ≈ are worked out from the molar mass of the structure shown. One block for each molecule: values may come before it. Active and inactive are the calls of the source. The calls are words filed in the database; no cut-off is given here.
Assays:
Mus musculus = experiment: Antiangiogenic activity in C57BL/6 mouse laser-induced choroidal neovascularization model assessed as inhibition of neovascularization administered 1% suspension using 3.5 uL topical drop to both eyes every 3 hrs for 9 hrs by microscopic analysis
[1] = Intrinsic clearance in rat liver microsomes at 1 uM after 5 to 30 mins by LC-MS/MS analysis; format: ADME, microsome; settings: read-out: CLH
[2] = molecular target: Proto-oncogene tyrosine-protein kinase receptor Ret (Homo sapiens, UniProt P07949); experiment: Inhibition of human RET
[3] = Cmax in plasma of Brown Norway rat administered 0.3% suspension using 4 uL topical drop to both eyes every 3 hrs for 9 hrs over 10 days and single drop to each eye on day 11 by LC-MS/MS analysis; format: ADME; settings: topical or ocular, 4 uL of 0.3% suspension per eye
[4] = Cmax in cynomolgus monkey plasma administered 0.5% suspension using 30 uL topical drop to both eyes every 3 hrs for 9 hrs over 5 days and single drop to each eye on day 6 by LC-MS/MS analysis; format: ADME, Macaca fascicularis; settings: topical or ocular, 30 uL of 0.5% suspension per eye
[5] = AUC (0 to last) in cynomolgus monkey plasma administered 0.5% suspension using 30 uL topical drop to both eyes as single dose by LC-MS/MS analysis; format: ADME, Macaca fascicularis; set-up: dose 30 uL, route ophthalmic, time 0 - last; settings: topical or ocular, 30 uL of 0.5% suspension per eye
[6] = Cmax in retina of Brown Norway rat administered 0.3% suspension using 4 uL topical drop to both eyes every 3 hrs for 9 hrs over 10 days and single drop to each eye on day 11 by LC-MS/MS analysis; format: ADME; settings: topical or ocular, 4 uL of 0.3% suspension per eye
[7] = molecular target: Tyrosine-protein kinase Lyn (Homo sapiens, UniProt P07948); experiment: Inhibition of human LYN
[8] = AUC (0 to last) in retina of Brown Norway rat administered 0.3% suspension using 4 uL topical drop to both eyes every 3 hrs for 9 hrs over 10 days and single drop to each eye on day 11 by LC-MS/MS analysis; format: ADME; settings: topical or ocular, 4 uL of 0.3% suspension per eye
Rattus norvegicus [9] = experiment: Antiangiogenic activity in Brown Norway rat laser-induced choroidal neovascularization model assessed as inhibition of neovascularization administered 0.09% suspension using 4 uL topical drop to both eyes every 3 hrs for 9 hrs by microscopic analysis; format: functional
[10] = AUC (0 to last) in plasma of Brown Norway rat administered 0.3% suspension using 4 uL topical drop to both eyes as single dose by LC-MS/MS analysis; format: ADME; set-up: dose 4 uL, time 0 - last, route ophthalmic; settings: topical or ocular, 4 uL of 0.3% suspension per eye
[11] = molecular target: Tyrosine-protein kinase ABL1 (Homo sapiens, UniProt P00519); experiment: Inhibition of human ABL
[12] = AUC (0 to last) in retina of Brown Norway rat administered 0.3% suspension using 4 uL topical drop to both eyes as single dose by LC-MS/MS analysis; format: ADME, tissue-based; set-up: dose 4 uL, time 0 - last, route ophthalmic; settings: topical or ocular, 4 uL of 0.3% suspension per eye
[13] = AUC (0 to last) in cynomolgus monkey plasma administered 0.5% suspension using 30 uL topical drop to both eyes every 3 hrs for 9 hrs over 5 days and single drop to each eye on day 6 by LC-MS/MS analysis; format: ADME, Macaca fascicularis; settings: topical or ocular, 30 uL of 0.5% suspension per eye
[14] = AUC (0 to last) in posterior eye cup of Brown Norway rat administered 0.3% suspension using 4 uL topical drop to both eyes as single dose by LC-MS/MS analysis; format: ADME; settings: topical or ocular, 4 uL of 0.3% suspension per eye
Plasma = experiment: Plasma concentration in cynomolgus monkey administered 0.5% suspension using 30 uL topical drop to both eyes every 3 hrs for 9 hrs over 5 days and single drop to each eye on day 6 by LC-MS/MS analysis; format: ADME, cell-free, Macaca fascicularis; settings: topical_or_ocular
[15] = Cmax in posterior eye cup of Brown Norway rat administered 0.3% suspension using 4 uL topical drop to both eyes as single dose by LC-MS/MS analysis; format: ADME; settings: topical or ocular, 4 uL of 0.3% suspension per eye
[16] = Tmax in cynomolgus monkey plasma administered 0.5% suspension using 30 uL topical drop to both eyes every 3 hrs for 9 hrs over 5 days and single drop to each eye on day 6 by LC-MS/MS analysis; format: ADME, Macaca fascicularis; settings: topical or ocular, 30 uL of 0.5% suspension per eye
[17] = molecular target: Mast/stem cell growth factor receptor Kit (Homo sapiens, UniProt P10721); experiment: Inhibition of human KIT
[18] = Cmax in retina of Brown Norway rat administered 0.3% suspension using 4 uL topical drop to both eyes as single dose by LC-MS/MS analysis; format: ADME, tissue-based; set-up: dose 4 uL, route ophthalmic; settings: topical or ocular, 4 uL of 0.3% suspension per eye
[19] = AUC (0 to last) in plasma of Brown Norway rat administered 0.3% suspension using 4 uL topical drop to both eyes every 3 hrs for 9 hrs over 10 days and single drop to each eye on day 11 by LC-MS/MS analysis; format: ADME; settings: topical or ocular, 4 uL of 0.3% suspension per eye
Cynomolgus monkey [20] = experiment: Toxicity in cynomolgus monkey ocular fundus administered 0.5% suspension using 30 uL topical drop to both eyes every 3 hrs for 9 hrs over 5 days by indirect ophthalmoscopic method; set-up: species or system Macaca fascicularis; settings: in vivo, topical_or_ocular
[21] = Solubility of compound at pH 7.4; format: physicochemical; settings: buffer
Cynomolgus monkey [22] = experiment: Toxicity in cynomolgus monkey adnexa region of eye administered 0.5% suspension using 30 uL topical drop to both eyes every 3 hrs for 9 hrs over 5 days by slit lamp biomicroscopic method; set-up: species or system Macaca fascicularis; settings: in vivo, topical_or_ocular
[23] = Plasma concentration in cynomolgus monkey administered 0.5% suspension using 30 uL topical drop to both eyes as single dose measured over 24 hrs by LC-MS/MS analysis; format: ADME, cell-free, Macaca fascicularis; settings: topical or ocular, 30 uL of 0.5% suspension per eye
[24] = molecular target: Platelet-derived growth factor receptor alpha (Homo sapiens, UniProt P16234); experiment: Inhibition of human PDGFRalpha
Cynomolgus monkey [25] = experiment: Toxicity in cynomolgus monkey anterior region of eye administered 0.5% suspension using 30 uL topical drop to both eyes every 3 hrs for 9 hrs over 5 days by slit lamp biomicroscopic method; set-up: species or system Macaca fascicularis; settings: in vivo, topical_or_ocular
[26] = Cmax in plasma of Brown Norway rat administered 0.3% suspension using 4 uL topical drop to both eyes as single dose by LC-MS/MS analysis; format: ADME; set-up: dose 4 uL, route ophthalmic; settings: topical or ocular, 4 uL of 0.3% suspension per eye
Rattus norvegicus [27] = experiment: Antiangiogenic activity in Brown Norway rat laser-induced choroidal neovascularization model assessed as inhibition of neovascularization administered 0.1% solution to both eyes every 3 hrs for 9 hrs by microscopic analysis; format: functional
[28] = Cmax in posterior eye cup of Brown Norway rat administered 0.3% suspension using 4 uL topical drop to both eyes every 3 hrs for 9 hrs over 10 days and single drop to each eye on day 11 by LC-MS/MS analysis; format: ADME; settings: topical or ocular, 4 uL of 0.3% suspension per eye
[29] = Tmax in cynomolgus monkey plasma administered 0.5% suspension using 30 uL topical drop to both eyes as single dose by LC-MS/MS analysis; format: ADME, Macaca fascicularis; settings: topical or ocular, 30 uL of 0.5% suspension per eye
[30] = AUC (0 to last) in posterior eye cup of Brown Norway rat administered 0.3% suspension using 4 uL topical drop to both eyes every 3 hrs for 9 hrs over 10 days and single drop to each eye on day 11 by LC-MS/MS analysis; format: ADME; settings: topical or ocular, 4 uL of 0.3% suspension per eye
[31] = Cmax in cynomolgus monkey plasma administered 0.5% suspension using 30 uL topical drop to both eyes as single dose by LC-MS/MS analysis; format: ADME, Macaca fascicularis; set-up: dose 30 uL, route ophthalmic; settings: topical or ocular, 30 uL of 0.5% suspension per eye
[32] = molecular target: Vascular endothelial growth factor receptor 2 (Homo sapiens, UniProt P35968)
Description: Inhibition of KDR (unknown origin) expressed in mouse Ba/F3 cells

Tyrosine-protein kinase ABL1, sequence (P00519 whole entry): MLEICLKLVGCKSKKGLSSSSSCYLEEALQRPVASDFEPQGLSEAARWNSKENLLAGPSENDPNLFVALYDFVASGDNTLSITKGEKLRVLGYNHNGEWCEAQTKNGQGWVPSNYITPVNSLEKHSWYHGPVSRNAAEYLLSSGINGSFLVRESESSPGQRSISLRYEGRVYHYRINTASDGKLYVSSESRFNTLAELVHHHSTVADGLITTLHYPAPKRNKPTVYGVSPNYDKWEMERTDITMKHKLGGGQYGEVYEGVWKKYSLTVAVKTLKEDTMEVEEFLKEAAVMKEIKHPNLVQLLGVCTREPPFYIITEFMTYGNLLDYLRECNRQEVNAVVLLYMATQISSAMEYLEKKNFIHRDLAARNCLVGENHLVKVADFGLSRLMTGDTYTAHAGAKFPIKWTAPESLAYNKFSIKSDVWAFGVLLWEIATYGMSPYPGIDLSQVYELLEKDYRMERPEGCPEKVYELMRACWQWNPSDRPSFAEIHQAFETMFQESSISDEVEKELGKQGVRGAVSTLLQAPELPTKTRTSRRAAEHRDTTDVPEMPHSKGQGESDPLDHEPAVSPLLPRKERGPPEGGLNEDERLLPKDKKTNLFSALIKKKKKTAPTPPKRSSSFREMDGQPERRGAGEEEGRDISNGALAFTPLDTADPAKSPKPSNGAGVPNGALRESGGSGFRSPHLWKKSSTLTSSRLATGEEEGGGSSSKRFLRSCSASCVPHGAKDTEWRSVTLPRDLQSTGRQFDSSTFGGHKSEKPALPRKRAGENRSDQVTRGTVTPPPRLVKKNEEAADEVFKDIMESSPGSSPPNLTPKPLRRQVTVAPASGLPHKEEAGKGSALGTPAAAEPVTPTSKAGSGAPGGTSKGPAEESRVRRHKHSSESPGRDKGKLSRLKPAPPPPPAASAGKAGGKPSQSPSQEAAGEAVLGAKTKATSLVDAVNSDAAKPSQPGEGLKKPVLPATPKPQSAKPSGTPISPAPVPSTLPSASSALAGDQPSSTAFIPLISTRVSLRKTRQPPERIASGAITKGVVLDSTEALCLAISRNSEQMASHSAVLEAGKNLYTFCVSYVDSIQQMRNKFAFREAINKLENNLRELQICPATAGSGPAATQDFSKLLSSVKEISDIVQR
Platelet-derived growth factor receptor alpha, sequence (P16234 whole entry): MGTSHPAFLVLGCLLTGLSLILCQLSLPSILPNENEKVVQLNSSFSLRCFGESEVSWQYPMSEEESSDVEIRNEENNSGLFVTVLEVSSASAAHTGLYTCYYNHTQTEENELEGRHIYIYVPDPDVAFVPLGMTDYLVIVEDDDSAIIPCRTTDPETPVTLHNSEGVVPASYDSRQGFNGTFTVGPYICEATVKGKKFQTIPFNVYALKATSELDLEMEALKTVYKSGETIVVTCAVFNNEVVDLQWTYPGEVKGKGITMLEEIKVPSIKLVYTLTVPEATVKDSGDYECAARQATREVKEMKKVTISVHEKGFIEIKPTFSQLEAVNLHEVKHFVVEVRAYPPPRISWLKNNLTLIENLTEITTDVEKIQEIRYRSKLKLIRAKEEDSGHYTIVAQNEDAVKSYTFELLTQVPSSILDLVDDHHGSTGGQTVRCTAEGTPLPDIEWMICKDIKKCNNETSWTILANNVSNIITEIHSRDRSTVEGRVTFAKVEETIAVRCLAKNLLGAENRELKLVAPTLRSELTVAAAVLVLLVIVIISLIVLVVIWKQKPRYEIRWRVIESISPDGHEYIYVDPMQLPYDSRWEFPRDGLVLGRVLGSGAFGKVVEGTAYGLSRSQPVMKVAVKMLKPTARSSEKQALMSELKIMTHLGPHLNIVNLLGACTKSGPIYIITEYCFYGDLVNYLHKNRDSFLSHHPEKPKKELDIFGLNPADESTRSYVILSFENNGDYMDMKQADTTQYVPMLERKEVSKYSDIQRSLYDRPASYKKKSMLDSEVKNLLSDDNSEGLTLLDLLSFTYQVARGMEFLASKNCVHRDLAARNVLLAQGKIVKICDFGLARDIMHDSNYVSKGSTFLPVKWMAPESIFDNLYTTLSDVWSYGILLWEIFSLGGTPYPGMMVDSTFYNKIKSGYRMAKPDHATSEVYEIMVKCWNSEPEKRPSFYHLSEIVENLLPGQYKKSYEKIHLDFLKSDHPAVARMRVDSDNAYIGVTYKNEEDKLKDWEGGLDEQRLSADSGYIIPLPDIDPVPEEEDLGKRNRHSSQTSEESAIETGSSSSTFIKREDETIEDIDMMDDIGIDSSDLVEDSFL
Tyrosine-protein kinase Lyn, sequence (P07948 whole entry): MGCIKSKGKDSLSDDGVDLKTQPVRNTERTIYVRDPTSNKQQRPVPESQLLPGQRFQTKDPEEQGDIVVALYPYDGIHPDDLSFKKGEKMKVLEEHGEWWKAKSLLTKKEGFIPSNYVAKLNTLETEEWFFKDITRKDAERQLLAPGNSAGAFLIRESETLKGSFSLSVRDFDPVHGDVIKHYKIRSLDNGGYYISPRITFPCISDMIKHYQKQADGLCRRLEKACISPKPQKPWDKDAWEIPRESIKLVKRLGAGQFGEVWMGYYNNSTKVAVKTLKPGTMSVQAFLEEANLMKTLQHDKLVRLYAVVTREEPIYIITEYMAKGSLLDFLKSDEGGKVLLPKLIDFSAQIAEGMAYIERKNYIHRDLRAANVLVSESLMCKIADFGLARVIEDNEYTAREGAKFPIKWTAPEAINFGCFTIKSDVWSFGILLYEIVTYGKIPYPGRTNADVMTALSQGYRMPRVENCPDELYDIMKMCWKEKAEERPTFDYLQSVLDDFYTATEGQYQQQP
Proto-oncogene tyrosine-protein kinase receptor Ret, sequence (P07949 whole entry): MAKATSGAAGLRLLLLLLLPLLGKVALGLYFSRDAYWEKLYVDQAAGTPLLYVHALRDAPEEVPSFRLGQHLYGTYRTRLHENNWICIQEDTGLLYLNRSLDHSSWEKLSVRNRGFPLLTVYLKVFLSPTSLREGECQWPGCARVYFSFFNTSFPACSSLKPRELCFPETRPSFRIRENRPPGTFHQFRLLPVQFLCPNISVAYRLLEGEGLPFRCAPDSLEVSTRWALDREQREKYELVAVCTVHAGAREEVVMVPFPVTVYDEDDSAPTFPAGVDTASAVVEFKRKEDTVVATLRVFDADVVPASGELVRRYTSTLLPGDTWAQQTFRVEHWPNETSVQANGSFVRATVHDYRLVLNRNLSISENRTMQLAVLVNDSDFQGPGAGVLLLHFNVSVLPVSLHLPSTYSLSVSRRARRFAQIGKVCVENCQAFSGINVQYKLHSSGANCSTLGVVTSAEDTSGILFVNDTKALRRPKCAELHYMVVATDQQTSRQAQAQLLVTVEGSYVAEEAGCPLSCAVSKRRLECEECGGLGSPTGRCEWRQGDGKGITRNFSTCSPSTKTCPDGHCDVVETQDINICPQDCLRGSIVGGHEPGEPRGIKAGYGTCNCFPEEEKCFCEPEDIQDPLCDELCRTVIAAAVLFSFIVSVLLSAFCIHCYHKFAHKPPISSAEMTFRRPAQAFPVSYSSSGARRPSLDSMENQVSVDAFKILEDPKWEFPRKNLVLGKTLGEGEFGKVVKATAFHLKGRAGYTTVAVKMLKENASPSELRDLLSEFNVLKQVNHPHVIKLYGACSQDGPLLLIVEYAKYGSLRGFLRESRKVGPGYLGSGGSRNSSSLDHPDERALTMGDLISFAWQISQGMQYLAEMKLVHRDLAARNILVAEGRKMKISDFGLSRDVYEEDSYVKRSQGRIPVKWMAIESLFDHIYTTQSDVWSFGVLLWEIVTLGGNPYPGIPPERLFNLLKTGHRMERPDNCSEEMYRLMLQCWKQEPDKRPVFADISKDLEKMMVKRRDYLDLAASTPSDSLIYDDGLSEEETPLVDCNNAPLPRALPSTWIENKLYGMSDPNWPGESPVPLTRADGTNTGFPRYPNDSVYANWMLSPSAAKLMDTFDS
Mast/stem cell growth factor receptor Kit, sequence (P10721 whole entry): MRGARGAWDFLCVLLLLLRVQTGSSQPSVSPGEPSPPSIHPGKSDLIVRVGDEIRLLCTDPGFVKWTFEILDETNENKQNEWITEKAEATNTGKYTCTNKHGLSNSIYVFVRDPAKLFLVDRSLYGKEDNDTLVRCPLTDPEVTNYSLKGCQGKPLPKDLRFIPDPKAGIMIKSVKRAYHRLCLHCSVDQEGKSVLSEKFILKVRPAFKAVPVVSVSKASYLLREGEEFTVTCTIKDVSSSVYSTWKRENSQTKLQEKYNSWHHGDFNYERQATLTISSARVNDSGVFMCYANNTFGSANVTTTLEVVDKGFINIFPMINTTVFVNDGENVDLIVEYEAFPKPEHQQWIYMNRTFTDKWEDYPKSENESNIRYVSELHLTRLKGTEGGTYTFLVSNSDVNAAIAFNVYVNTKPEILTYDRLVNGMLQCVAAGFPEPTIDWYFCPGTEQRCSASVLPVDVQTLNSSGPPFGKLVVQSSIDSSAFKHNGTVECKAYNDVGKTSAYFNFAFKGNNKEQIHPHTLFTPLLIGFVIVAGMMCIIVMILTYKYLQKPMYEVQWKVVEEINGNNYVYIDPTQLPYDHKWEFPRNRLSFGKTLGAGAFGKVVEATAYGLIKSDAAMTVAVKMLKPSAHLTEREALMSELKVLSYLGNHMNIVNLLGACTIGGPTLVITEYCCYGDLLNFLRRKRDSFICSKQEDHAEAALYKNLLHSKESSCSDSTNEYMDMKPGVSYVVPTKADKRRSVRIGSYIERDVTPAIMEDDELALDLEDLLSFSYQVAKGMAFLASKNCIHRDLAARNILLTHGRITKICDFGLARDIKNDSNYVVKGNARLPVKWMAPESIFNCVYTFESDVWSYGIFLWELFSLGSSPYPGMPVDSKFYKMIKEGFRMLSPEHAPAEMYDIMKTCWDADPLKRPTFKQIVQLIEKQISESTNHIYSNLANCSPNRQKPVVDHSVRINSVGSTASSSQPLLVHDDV

Structure (SMILES): O=C(Nc1cc(C2CCOCC2)on1)n1ccc2cc(Oc3ncnc4c3CNC4)ccc21
inhibition (Mus musculus): inactive

microsomal CLint at 1 µM [1]: 114 µL/min/mg
Structure (SMILES): CNCc1cc(Oc2ccc3c(ccn3C(=O)Nc3cc(C(C)C)on3)c2)ncn1

Structure (SMILES): O=C(Nc1cc(C2CC2)on1)n1ccc2cc(Oc3ncnc4c3CCNC4)ccc21
inhibition (Mus musculus): inactive

IC50 [2]: < 500 nM | Cmax [3]: 78.6 nM | Cmax [4]: 228 nM | AUC(0-t) [5]: 1.07 µM·h | Cmax [6]: 138 nM | IC50 [7]: < 500 nM | AUC(0-t) [8]: 0.764 µM·h | AUC(0-t) [10]: 0.449 µM·h | IC50 [11]: < 500 nM | AUC(0-t) [12]: 0.22 µM·h | AUC(0-t) [13]: 2.51 µM·h | AUC(0-t) [14]: 8.97 µM·h | concentration (Plasma): 84.4 nM | Cmax [15]: 2860 nM | Tmax [16]: 3 h | IC50 [17]: < 500 nM | Cmax [18]: 150 nM | AUC(0-t) [19]: 0.923 µM·h | solubility [21]: 0.6 µM (≈ 0.284 µg/mL) | concentration at 24 h [23]: 64 nM | IC50 [24]: < 500 nM | Cmax [26]: 51.6 nM | Cmax [28]: 4730 nM | Tmax [29]: 11 h | AUC(0-t) [30]: 29.5 µM·h | Cmax [31]: 65.8 nM
Structure (SMILES): CC(=O)N1Cc2ncnc(Oc3ccc4c(ccn4C(=O)Nc4cc(C5CC5)on4)c3)c2C[C@@H]1C
inhibition (INH) (Rattus norvegicus [9]): 50% | Activity (Cynomolgus monkey [20]): Non-Toxic | Activity (Cynomolgus monkey [22]): Non-Toxic | Activity (Cynomolgus monkey [25]): Non-Toxic | inhibition (INH) (Rattus norvegicus [27]): 55%

IC50 [32]: 1.3 nM
Structure (SMILES): O=C(Nc1cccc(C(F)(F)F)c1)c1cccc2cc(Oc3cc(CO)ncn3)ccc12 [BFH-772]

Structure (SMILES): O=C(Nc1cc(C2(CO)CC2)on1)n1ccc2cc(Oc3ncnc4c3CNC4)ccc21
inhibition (Mus musculus): inactive

microsomal CLint at 1 µM [1]: 131 µL/min/mg
Structure (SMILES): CNCc1cc(Oc2ccc3c(ccn3C(=O)Nc3cc(C(F)(F)F)[nH]n3)c2)ncn1

From ChEMBL document CHEMBL4052831, “The Discovery of N-(1-Methyl-5-(trifluoromethyl)-1H-pyrazol-3-yl)-5-((6- ((methylamino)methyl)pyrimidin-4-yl)oxy)-1H-indole-1-carboxamide (Acrizanib), a VEGFR-2 Inhibitor Specifically Designed for Topical Ocular Delivery, as a Therapy for Neovascular Age-Related Macular Degeneration” (J Med Chem, 2018)
